From the NIST ThermoML archive (doi:10.1016/j.jct.2007.10.002)
Numbers after ± are expanded uncertainties.

Key:
[1] = 298.15 K, 101 kPa, Liquid; for viscosity: Capillary tube (Ostwald / Ubbelohde) method; for mass density: Vibrating tube method
[2] = refractive index (Na D-line) (dimensionless); settings: 298.15 K; 101.33 kPa; Liquid; Standard Abbe refractometry
[3] = xn = mol fraction of the nth substance listed; settings: 298.15 K, 101 kPa, Liquid; for viscosity: Capillary tube (Ostwald / Ubbelohde) method; for mass density: Vibrating tube method
[4] = refractive index (Na D-line) (dimensionless); xn = mol fraction of the nth substance listed; settings: 298.15 K, 101 kPa, Liquid, Standard Abbe refractometry

CCCCn1cc[n+](C)c1C.F[B-](F)(F)F [1-butyl-2,3-dimethylimidazolium tetrafluoroborate]
Settings | mass density [kg/m3] | refractive index | viscosity [mPa·s]
[1] | 1191.2 ± 7.7 | – | 455.81 ± 29
[2] | – | 1.433 ± 0.002 | –

CCCCn1cc[n+](C)c1C.F[B-](F)(F)F [1-butyl-2,3-dimethylimidazolium tetrafluoroborate] + O
Settings | mass density, [3] [kg/m3] | refractive index, [4] | viscosity, [3] [mPa·s]
x1 = 0.0085 | 1012.56 ± 0.095 | – | 1.06 ± 0.01
x1 = 0.0397 | 1053.33 ± 0.16 | 1.362 ± 0.002 | 1.83 ± 0.02
x1 = 0.1068 | 1100.33 ± 0.3 | 1.387 ± 0.002 | 3.96 ± 0.04
x1 = 0.1997 | 1132.18 ± 0.58 | 1.404 ± 0.002 | 7.34 ± 0.08
x1 = 0.2577 | 1144.22 ± 0.81 | 1.411 ± 0.002 | 10.07 ± 0.11
x1 = 0.3222 | 1154.04 ± 1.1 | 1.417 ± 0.002 | 12.62 ± 0.16
x1 = 0.4983 | – | 1.423 ± 0.002 | –
x1 = 0.7058 | 1182.14 ± 4 | 1.429 ± 0.002 | 94.63 ± 2.6
x1 = 0.7325 | 1183.22 ± 4.3 | 1.43 ± 0.002 | 104.97 ± 3.1
x1 = 0.8659 | 1187.78 ± 5.9 | 1.432 ± 0.002 | 214.82 ± 9.5
x1 = 1 | 1191.2 ± 7.7 | 1.433 ± 0.002 | 455.81 ± 29

CCCCn1cc[n+](C)c1.F[B-](F)(F)F [1-butyl-3-methylimidazolium tetrafluoroborate]
Settings | mass density [kg/m3] | refractive index | viscosity [mPa·s]
[1] | 1200.3 ± 7.8 | – | 100.66 ± 3.3
[2] | – | 1.422 ± 0.002 | –

CCCCn1cc[n+](C)c1.F[B-](F)(F)F [1-butyl-3-methylimidazolium tetrafluoroborate] + O
Settings | mass density, [3] [kg/m3] | refractive index, [4] | viscosity, [3] [mPa·s]
x1 = 0.036 | 1050.07 ± 0.15 | – | 1.51 ± 0.01
x1 = 0.044 | 1058.55 ± 0.17 | 1.36 ± 0.002 | 1.67 ± 0.02
x1 = 0.1267 | 1112.51 ± 0.36 | 1.384 ± 0.002 | 3.22 ± 0.03
x1 = 0.3134 | 1158.59 ± 1.1 | 1.405 ± 0.002 | 7.2 ± 0.09
x1 = 0.4984 | 1177.85 ± 2.2 | 1.412 ± 0.002 | 13.63 ± 0.22
x1 = 0.5802 | 1183.49 ± 2.9 | 1.415 ± 0.002 | 19.25 ± 0.34
x1 = 0.7488 | – | 1.418 ± 0.002 | –
x1 = 0.8089 | 1194.47 ± 5.3 | 1.419 ± 0.002 | 46.55 ± 1.1
x1 = 0.9719 | 1199.54 ± 7.4 | 1.421 ± 0.002 | 88.87 ± 2.7
x1 = 1 | 1200.3 ± 7.8 | 1.422 ± 0.002 | 100.66 ± 3.3

O [water] + CCCCn1cc[n+](C)c1.F[B-](F)(F)F
x2 = 0
Settings | refractive index | viscosity [mPa·s]
[3] | – | 0.89 ± 0.01
[4] | 1.333 ± 0.002 | –

O [water] + CCCCn1cc[n+](C)c1C.F[B-](F)(F)F
x2 = 0
Settings | refractive index | viscosity [mPa·s]
[3] | – | 0.89 ± 0.01
[4] | 1.333 ± 0.002 | –
